Molecules are shown by their SMILES.

Consider ten molecules from patent US6417212B1, “Modulators of peroxisome proliferator activated receptors” (Eli Lilly & Company, priority 1999, dated 2002).

For assay [1], the system named is Hu apoAI transgenic mice. The experiment in a line: Evaluation of triglyceride and cholesterol levels in Hu apoAI transgenic mice. Format: in vivo. To be noted: for change in vivo at 30 mg/kg / inhibition in vivo at 30 mg/kg: Mus musculus, 168 h, 30 mg/kg daily oral gavage for 7 days; for change in vivo at 30 mg/kg: pooled sera, read-out: % HDLc Increase (serum, FPLC area under the curve, over vehicle); for inhibition in vivo at 30 mg/kg: serum 3 hours after dosing on day 7, read-out: % Triglyceride Decrease (serum, over mice receiving vehicle). On the procedure:
After an acclimation period of 2 weeks, animals were individually identified by ear notches, weighed, and assigned to groups based on body weight. Beginning the following morning, mice were dosed daily by oral gavage for 7 days using a 20 gauge, 11⁄2 curved disposable feeding needle (Popper & Sons). […] Prior to termination on day 7, mice were weighed and dosed. Three hours after dosing, animals were anesthetized by inhalation of isoflurane (2-4%; Abbott Laboratories, Chicago, Ill.) and blood obtained via cardiac puncture (0.7-1.0 ml). Whole blood was transferred to serum separator tubes (Vacutainer SST), chilled on ice, and permitted to clot. Serum was obtained after centrifugation at 4° C. and frozen until analysis for triglycerides, total cholesterol, compound levels, and serum lipoprotein profile by fast protein liquid chromatography (FPLC) coupled to an inline detection system. After sacrifice by cervical dislocation, the liver, heart and epididymal fat pads were excised and weighed. […] The percentage decrease in triglyceride serum levels in mice receiving a compound of the invention over mice receiving vehicle are reported in Table 2. […] The absorbance of the dye produced is linearly related to the analyte in the sample. The assays were further modified in our laboratory for use in a 96 well format. […] An additional aliquot of sample, pipetted to a third well and diluted in 200 μl water, provided a blank for each specimen. […] All samples from an experiment were assayed at the same time to minimize inter-assay variability. Serum lipoproteins were separated and cholesterol quantitated with an in-line detection system. […] The change in voltage corresponding to change in cholesterol concentration was plotted vs time and the area under the curve corresponding to the elution of VLDL, LDL and HDL was calculated using Perkin Elmer Turbochrome software.

Assay [2] relates to db/db mice. In words: Evaluation of glucose levels in db/db mice. Format: in vivo. Conditions: Mus musculus, 168 h; 30 mg/kg daily oral gavage for 7 days; 100% = glucose not different from lean values; read-out: Glucose Normalisation. On the procedure:
After an acclimation period of 2 weeks, animals were individually identified by ear notches, weighed, and bled via the tail vein for determination of initial glucose levels. Blood was collected (100 μl) from unfasted animals by wrapping each mouse in a towel, cutting the tip of the tail with a scalpel, and milking blood from the tail into a heparinized capillary tube (Fisher) balanced on the edge of the bench. Sample was discharged into a heparinized microtainer with gel separator (VWR) and retained on ice. Plasma was obtained after centrifugation at 4° C. and glucose measured immediately. Remaining plasma was frozen until the completion of the experiment, when glucose and triglycerides were assayed in all samples. Animals were grouped based on initial glucose levels and body weights. Beginning the following morning, mice were dosed daily by oral gavage for 7 days using a 20 gauge, 1½″ curved disposable feeding needle. […] On day 7, mice were weighed and bled (tail vein) 3 hours after dosing. Twenty-four hours after the 7th dose (i.e., day 8), animals were bled again (tail vein). Samples obtained from conscious animals on days 0, 7 and 8 were assayed for glucose. After the 24 hour bleed, animals were weighed and dosed for the final time. Three hours after dosing on day 8, animals were anesthetized by inhalation of isoflurane and blood obtained via cardiac puncture (0.5-0.7 ml). Whole blood was transferred to serum separator tubes, chilled on ice and permitted to clot. Serum was obtained after centrifugation at 4° C. and frozen until analysis for compound levels. After sacrifice by cervical dislocation, the liver, heart and epididymal fat pads were excised and weighed.
The absorbance of the dye produced is linearly related to the analyte in the sample. The assays were further modified in our laboratory for use in a 96 well format. […] An additional aliquot of sample, pipetted to a third well and diluted in 200 μl water, provided a blank for each specimen. […] Sample absorbances were compared to a standard curve (100-800, 10-500, and 100-400 mg/dl for glucose, triglycerides and total cholesterol, respectively). […] All samples from an experiment were assayed at the same time to minimize inter-assay variability.

[3] abbreviates: fenofibrate 100 mg/kg oral, 7 days, vs vehicle.

As to `CCCCc1cc(OC(C)(C)C(=O)O)ccc1OCCc1nc(-c2ccc(-c3ccccc3)cc2)oc1C` [Example 31, 2-{4-[2-(2-Biphenyl-4-yl-5-methyloxazol-4-yl)ethoxy]-3-butylphenoxy}-2-methylpropionic acid], in assay [1], the change in vivo at 30 mg/kg was 217% and the inhibition in vivo at 30 mg/kg worked out at 66.7%. The inhibition in vivo at 30 mg/kg in assay [2] came out at 89%.
On the same counts, the results for `Cc1oc(-c2cccc(-c3ccccc3)c2)nc1CCOc1cccc(OC(C)(C)C(=O)O)c1` [Example 22, 2-{3-[2-(2-Biphenyl-3-yl-5-methyloxazol-4-yl)ethoxy]phenoxy}-2-methylpropionic acid] are 191%, 73.6% and 102%.
On the same counts, the results for `CCCc1cc(OCCc2nc(-c3ccc(-c4ccccc4)cc3)oc2C)ccc1OC(C)(C)C(=O)O` [Example 60, 2-{4-[2-(2-Biphenyl-4-yl-5-methyloxazol-4-yl)-ethyloxy]-2-propylphenoxy}-2-methyl-propionic acid] are 38%, 40.8% and 68%.
In the case of `Cc1oc(-c2cccc(-c3ccccc3)c2)nc1CCOc1ccc(OC(C)(C)C(=O)O)cc1` [Example 3, 2-{4-[2-(2-Biphenyl-3-yl-5-methyloxazol-4-yl)ethoxy]phenoxy}-2-methylpropionic acid], in assay [1], the change in vivo at 30 mg/kg stood at 69% and the inhibition in vivo at 30 mg/kg was determined as 51.2%. In addition, the inhibition in vivo at 30 mg/kg in assay [2] was found to be 93%.
The like results for `Cc1oc(-c2ccc(-c3ccccc3)cc2)nc1CCOc1ccc(OC(C)(C)C(=O)O)c(-c2ccccc2)c1` [Example 38, 2-{5-[2-(2-Biphenyl-4-yl-5-methyloxazol-4-yl)-ethoxy]-biphenyl-2-yloxy}-2-methyl-propionic acid] were, in that order, 34%, 53.3% and 59%.
The like results for `Cc1oc(-c2ccc(-c3ccccc3)cc2)nc1CCOc1ccc(OC(C)(C)C(=O)O)c2ccccc12` [Example 48, 2-{4-[2-(2-Biphenyl-4-yl-5-methyloxazol-4-yl)ethoxy]naphthalen-1-yloxy}-2-methyl propionic acid] were, in that order, 89%, 43.7% and 31%.
Turning to `Cc1oc(-c2ccc(-c3ccccc3)cc2)nc1CCOc1ccc(OC(C)(C)C(=O)O)cc1` [Example 1, 2-{4-[2-(2-Biphenyl-4-yl-5-methyloxazol-4-yl)ethoxy]phenoxy}-2-methylpropionic acid], the change in vivo at 30 mg/kg in assay [1] amounted to 160%. The inhibition in vivo at 30 mg/kg was determined as 62.2% in assay [1] and 90% in assay [2].
On the same counts, the results for `Cc1oc(-c2ccc(-c3ccccc3)cc2)nc1CCOc1ccc(OC(C)(C)C(=O)O)c2c1CCCC2` [Example 50, 2-{4-[2-(2-Biphenyl-4-yl-5-methyloxazol-4-yl)-ethoxy]-5,6,7,8-tetrahydronaphthalen-1-yloxy}-2-methyl propionic acid] are 95%, 53.9% and 42%.
As for `CC(C)OC(=O)C(C)(C)Oc1ccc(C(=O)c2ccc(Cl)cc2)cc1` [fenofibrate, reference compound], in assay [1] (setting [3]), the “mean elevation of total serum cholesterol” value was found to be 41%, the “mean percent increase of HDLc” value is recorded as 48% and the “mean reduction of triglycerides” value is 37%. The “HDLc peak area (FPLC)” value in assay [1] (fenofibrate 100 mg/kg oral, 7 days, vehicle 47-62 v-sec) is reported as 68-96 v-sec. For the same molecule, the average triglycerides values in assay [1] (fenofibrate 100 mg/kg oral, 7 days, vehicle 60-80 mg/dl) is 33 to 58 mg/dL. Also, the “average total serum cholesterol values” in assay [1] (fenofibrate 100 mg/kg oral, 7 days, vehicle 148-180 mg/dl) lay in the range of 190 to 280 mg/dL.
Turning to `Cc1oc(-c2ccc(-c3ccccc3C(F)(F)F)cc2)nc1CCOc1ccc(OC(C)(C)C(=O)O)cc1` [Example 12, 2-Methyl-2-(4-{2-[5-methyl-2-(2′-trifluoromethyl-biphenyl-4-yl)-oxazol-4-yl]-ethoxy}-phenoxy)propionic acid], in assay [1], the change in vivo at 30 mg/kg worked out at 29% and the inhibition in vivo at 30 mg/kg was 37.6%. Moreover, the inhibition in vivo at 30 mg/kg in assay [2] was 44%.
